Experimental data from patent publication US8293481B2, “Biomarkers for chronic vascular dysfunction” (Mayo Foundation for Medical Education and Research, priority 2006, dated 2012).

What was measured:
Assay in all cases: Real-time PCR gene expression in aorta post MI
Format in all cases: in vivo, rat
[1] = test system: MIR16 (membrane interacting protein of RGS16); conditions: 4 weeks post-infarction (increased at 2 weeks), FIG. 1
Excerpt: (§1) After intubation, rats were ventilated continuously (room air) using a small animal ventilator (Model 683, Harvard Apparatus, Holliston, Mass.). A left lateral thoracotomy incision was made along the 5th intercostal space and after the pericardium was opened, the heart was exteriorized using a retention suture placed at the apex. The left anterior descending coronary artery (LAD) was ligated twice using 6-0 prolene suture (Ethicon, Cornelia, Ga.). After chest closure with running 3-0 vicryl suture (Ethicon), rats were put in a recovery chamber with a heating pad and warming light. The post-operative survival rate reached 80%. […] Rats were fed a standard diet of Teklad rodent feed (Harlan) ad libitum and kept on a 12:12 h light-dark cycle. Rats were sacrificed at designated time intervals of 2 weeks and 4 weeks after surgery. […] Isolation of total RNA: […] Surrounding peri-adventitial tissues, fat, and endothelium were then carefully cleaned away and removed. The remaining vascular smooth muscle was then frozen with liquid nitrogen, pulverized into fine powder, and resuspended in 600 μl of Buffer RLT with β-ME (10 μl β-ME: 1 ml Buffer RLT, Qiagen, Valencia, Calif.). The lysate was pipetted directly onto a QIAshredder spin column (Qiagen) placed in a 2 ml collection tube and centrifuged for 5 minutes at 14000 rpm, 4° C. The supernatant was transferred to a new microcentrifuge tube and 1 volume of 70% ethanol was added and mixed. The cleared lysate was then transferred to an RNeasy mini-column (Qiagen) placed in a 2 ml collection tube and spun for 15 seconds at ≧10,000 rpm, 4° C. The flow-through was discarded and 700 μl of Buffer RW1 (Qiagen) was added to the RNeasy column. After the column was spun for 15 seconds at ≧10,000 rpm (4° C.), it was transferred into a new 2 ml collection tube, washed, spun twice with 500 μl Buffer RPE (Qiagen), and eluted with 40 μl of RNase-free water using a microcentrifuge (≧10,000 rpm, 4° C.) for 1 minute. Final RNA samples were stored at -20° C. to prevent degradation. Confirmation of microarray result by quantitative real-time PCR: The remaining RNA from the aortic or portal vein RNA sample was quantitatively converted to single stranded cDNA using the High-Capacity cDNA Archive Kit (Applied Biosystems, Foster City, Calif.). Briefly, 50 μl of RNA sample was mixed with 50 μl of 2×RT master mix (10 μl of 10× Reverse Transcription Buffer, 4 μl of 25× dNTPs, 10 μl of 10× random primers, 5 μl of […] Reverse Transcriptase at 50 U/μl, 21 μl of RNase-free H2O) and pipetted into 0.2 ml MICROAMP® PCR Reaction Tubes with Caps (Applied Biosystems, Foster City, Calif.). Reverse transcription was performed using a thermal cycler (Eppendorf Mastercycler gradient) with incubation conditions set at 25° C. for 10 minutes followed by 37° C. for 120 minutes. The synthesized cDNA was then mixed with TAQMAN® Universal PCR Master Mix (2.5 μl of cDNA+47.5 μl of RNase-free H2O+50 μl of Master Mix) and loaded onto 384-Well micro fluid cards for quantitative real-time PCR (TAQMAN® Low Density Arrays, Applied Biosystems). This was done with customer-selected TAQMAN® Gene Expression Assays preloaded into each of the 384 wells. The 7900 HT Gene Expression Micro Fluid Card Configuration 2 (Applied Biosystems) with a total of 24 targets was used; 22 targets were selected to include the results from the microarray study, and the remaining two targets were controls GAPDH and 18S controls. For each cDNA sample, four replicates were analyzed for real-time PCR. After all ports of the Micro Fluidic Card were loaded with cDNA, it was spun for even distribution into the wells using a Sorvall Legend centrifuge (1 minute at 1200 rpm). The array was then run on the Applied Biosystems 7900HT Fast Real-time PCR System, and the data were analyzed using an Applied Biosystems RQ Manager Software (SDS 2.1). […]

[2] = test system: Cxcl12 (chemokine (C-X-C motif) ligand 12); conditions: 4 weeks post-infarction (increased at 2 weeks), FIG. 1
Excerpt: as §1

[3] = test system: IL-1β (interleukin 1 beta); conditions: 2 weeks post-infarction
Excerpt: as §1

Agt (angiotensinogen) = conditions: 4 weeks post-infarction (increased at 2 weeks), FIG. 1
Excerpt: as §1

[4] = test system: Gls2 (glutaminase 2 (liver, mitochondrial)); conditions: 2 weeks post-infarction
Excerpt: as §1

[5] = test system: Baat (bile acid-Coenzyme A amino acid N-acyltransferase); conditions: 2 weeks post-infarction
Excerpt: as §1

Taok1 (TAO kinase 1) = conditions: 2 weeks post-infarction
Excerpt: as §1

Rock2 (Rho kinase 2) = conditions: 2 weeks post-infarction
Excerpt: as §1

[6] = test system: Fmr1 (fragile X mental retardation syndrome 1 homolog); conditions: 2 weeks post-infarction
Excerpt: as §1

[7] = test system: Raf1 (v-raf-1 murine leukemia viral oncogene homolog 1); conditions: 2 weeks post-infarction
Excerpt: as §1

C[C@H](CS)C(=O)N1CCC[C@H]1C(=O)O [Captopril, 1-[(2S)-3-mercapto-2-methylpropionyl]-L-proline]
MIR16 expression, captopril versus placebo [1]: difference disappeared
Cxcl12 expression, captopril versus placebo [2]: difference disappeared
IL1-β expression, placebo or captopril therapy [3]: did not demonstrate any difference
Agt expression, captopril versus placebo (Agt (angiotensinogen)): difference disappeared
Gls2 expression, placebo or captopril therapy [4]: did not demonstrate any difference
Baat expression, placebo or captopril therapy [5]: did not demonstrate any difference
Taok1 expression, placebo or captopril therapy (Taok1 (TAO kinase 1)): did not demonstrate any difference
Rock2 expression, placebo or captopril therapy (Rock2 (Rho kinase 2)): did not demonstrate any difference
Fmr1 expression, placebo or captopril therapy [6]: did not demonstrate any difference
Raf1 expression, placebo or captopril therapy [7]: did not demonstrate any difference
